Assay results taken from PubChem BioAssay (NCI).
Several values for one entry are separate records, joined by “and”; a condition that tells them apart may be missing. Equal entries are not always repeated.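 Cultured in 96-well plates, cells were exposed to test compound for 48 hours across five concentrations. At the GI50, growth is halved. The concentration for full growth arrest is given as TGI.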

Tests used:
Experiment in all cases: DTP human tumour cell line panel, 48 h
[1] = test system: BT-549 breast
[2] = test system: CCRF-CEM leukemia
[3] = test system: KM12 colon
[4] = test system: MDA-N
[5] = test system: OVCAR-5 ovarian
[6] = test system: PC-3 prostate
[7] = test system: SK-MEL-2 melanoma
[8] = test system: SK-MEL-28 melanoma
[9] = test system: SNB-19 CNS
[10] = test system: SW-620 colon

| Compound | TGI [1] [µM] | TGI [2] | TGI [3] | TGI [4] [µM] | TGI [5] | TGI [6] [µM] | TGI [7] | TGI [8] | TGI [9] | TGI [10] | GI50 [1] [µM] | GI50 [5] [µM] | GI50 [7] [µM] | GI50 [8] [µM] | GI50 [10] [µM] | GI50 [2] [µM] | GI50 [3] [µM] | GI50 [9] [µM] |
| --- | --- | --- | --- | --- | --- | --- | --- | --- | --- | --- | --- | --- | --- | --- | --- | --- | --- | --- |
| COc1ccc2ccc3oc(=O)c(C)cc3c2c1 | > 100 | > 100 µM | > 100 µM | > 100 | > 100 µM | > 100 | > 100 µM | > 100 µM | > 100 µM | > 100 µM | – | – | – | – | – | – | – | – |
| CCCCCCN(CCCCCC)C(=S)N/N=C(\C)c1ccccn1 | 3.8 | 4.39 µM | 2.73 µM | 5.56 | 5.59 µM | 1.88 | 3.02 µM | 3.04 µM | 3.92 µM | 4.77 µM | – | – | – | – | – | – | – | – |
| CN(C)c1nc(Oc2nc(N(C)C)nc(N(C)C)n2)nc(N(C)C)n1 | – | > 100 µM | > 100 µM | – | > 100 µM | – | > 100 µM | > 100 µM | > 100 µM | > 100 µM | – | – | – | – | – | – | – | – |
| CCCCCCCC(=O)OCC(COC(=O)C(C)(C)C)OC(=O)Cc1ccccc1 (stereo not drawn) | – | > 100 µM | – | – | > 100 µM | – | – | > 100 µM | > 100 µM | > 100 µM | – | – | – | – | – | – | – | – |
| O=c1c(F)cn2c(=O)n1CCCCCCCn1c(=O)c(F)cn(c1=O)CCCCCCC2 | – | > 100 µM | > 100 µM | > 100 | > 100 µM | > 100 | > 100 µM | 22.2 µM | > 100 µM | > 100 µM | – | – | – | – | – | – | – | – |
| Cc1nnc2n(c1=O)CCCN2C | > 100 | > 100 µM | > 100 µM | > 100 | > 100 µM | > 100 | > 100 µM | > 100 µM | > 100 µM | > 100 µM | – | – | – | – | – | – | – | – |
| Nc1ncnc2c1nnn2C1C=CC(CP(=O)(O)O)C1 (stereo not drawn) | – | – | > 100 µM | > 100 | > 100 µM | > 100 | > 100 µM | > 100 µM | > 100 µM | > 100 µM | – | – | – | – | – | – | – | – |
| CN(C)CCn1c(=O)c2ccc(NCCCN(C)CCCNc3ccc4c(=O)n(CCN(C)C)c(=O)n5c6ccc(O)cc6c(=O)c3c45)c3c(=O)c4cc(O)ccc4n(c1=O)c23 | 0.691 | 0.13 µM | 0.553 µM | 0.251 | 1.15 µM | 0.31 | 0.275 µM | 1.19 µM | 1.54 µM | – | – | – | – | – | – | – | – | – |
| Cn1c2ccccc2n2c3ncccc3c(=O)c(C#N)c12 | 57.3 | > 100 µM | > 100 µM | – | > 100 µM | > 100 | 97.4 µM | > 100 µM | > 62.5 µM | > 100 µM | – | – | – | – | – | – | – | – |
| CCCCCCCCCCCCCCCCCCOc1ccccc1CC(=O)NCC[N+]1(C)CCOCC1 | 74 | – | – | – | 4.85 µM | – | 34.6 µM | 49.8 µM | – | 22.5 µM | 3.57 | 1.89 | 13.9 | 7.69 | 3.76 | – | – | – |
| S=C(Cc1ccc2c(c1)Sc1ccccc1O2)N1CCOCC1 | – | – | > 100 µM | > 100 | > 100 µM | > 100 | > 100 µM | > 100 µM | > 100 µM | > 100 µM | – | – | – | – | – | – | – | – |
| COc1ccc(N=Nc2c(-c3c(OC)cc4occc4c3OC)[nH]c(=O)c(C#N)c2C)cc1 | – | > 100 µM | > 100 µM | > 100 | > 100 µM | > 100 | > 100 µM | > 100 µM | > 100 µM | > 100 µM | – | – | – | – | – | – | – | – |
| O=C(/C=C/c1ccc(Cl)cc1)Oc1ccc(C=C2CCC/C(=C\c3ccc(OC(=O)/C=C/c4ccc(Cl)cc4)cc3)C2=O)cc1 | > 100 | – | > 100 µM | > 100 | > 100 µM | > 100 | > 100 µM | > 100 µM | > 100 µM | > 100 µM | – | – | – | – | – | – | – | – |
| c1ccc2c(c1)SCCCS2 | > 100 | > 100 µM | > 100 µM | > 100 | > 100 µM | > 100 | – | > 100 µM | > 100 µM | > 100 µM | – | – | – | – | – | – | – | – |
| O=[N+]([O-])c1ccc(C[P+]2(c3ccccc3)CCCCC2)cc1 | – | > 100 µM | > 100 µM | – | > 100 µM | – | > 100 µM | > 100 µM | > 100 µM | > 100 µM | – | – | – | – | – | – | – | – |
| Cc1nc2ccc(Cl)cc2c(-n2ccnc2)c1CCn1ccnc1 | 69.7 | 69.3 µM | – | 84.7 | > 100 µM | 72.1 | 44.7 µM | 92.8 µM | > 100 µM | > 100 µM | – | – | – | – | – | – | – | – |
| Cn1nc(-c2ccc(S(=O)(=O)/N=C(\NN)Nc3ccc(Cl)cc3)s2)cc1C(F)(F)F | 33.3 | – | 31.5 µM | 28 | 30.1 µM | 31.2 | 34.1 µM | 33.8 µM | 30.2 µM | 36.9 µM | – | – | – | – | – | – | – | – |
| C[C@]12CCC3[C@@H](CCC45OC4C(=O)CC[C@]35C)C1Cc1cnn(-c3ccc(F)cc3)c1N2 (stereo partly drawn) | – | > 100 µM | 55.1 µM | – | – | – | > 100 µM | 85.2 µM | 92.6 µM | 97 µM | – | – | – | – | – | – | – | – |
| CCc1c(O)cc(=O)oc1-c1ccc(OC)c(OC)c1 | > 100 | > 100 µM | > 100 µM | – | > 100 µM | > 100 | > 100 µM | > 100 µM | > 100 µM | > 100 µM | – | – | – | – | – | – | – | – |
| CCCCI(O)OS(=O)(=O)c1ccc(C)cc1 | > 100 | 76.3 µM | > 100 µM | – | > 100 µM | > 100 | > 100 µM | > 100 µM | > 100 µM | > 100 µM | – | – | – | – | – | – | – | – |
| Clc1cccc(-c2sc(-c3cccs3)cc2Cc2cccs2)c1 | > 10 | > 10 µM | > 10 µM | > 10 | – | > 10 | – | > 10 µM | > 10 µM | > 10 µM | – | – | – | – | – | – | – | – |
| COc1cc(C)c(CC/C(C)=C/Cc2cc(O)ccc2O)c(C)c1C | – | > 25 µM | > 25 µM | – | – | – | > 25 µM | > 25 µM | > 25 µM | > 25 µM | – | – | – | – | – | – | – | – |
| Cc1c2ccnc(C(N)=O)c2c(C)c2c1[nH]c1ccccc12 | – | 46.6 µM and > 100 µM | 47.2 µM and 56.1 µM | – | 37.4 µM and 33.3 µM | – | 37.5 µM and 44.1 µM | 19.4 µM and 20.1 µM | 46.9 µM and 19.9 µM | 45.6 µM and 40.8 µM | – | 6.41 | 9.86 | 5.31 | – | 3.64 | 0.651 | 4.45 |
